What was measured:
[1] = tested on: SH-SY5Y cells; test: Toxicity of Aβ42 alone (LDH release, ATP levels, caspase-3/7 activation, cell viability); type: cell-based, human
Source text: To investigate the effect of 2AT and KLT on Aβ42 toxicity, we performed a series of cell-based toxicity experiments in which we examined four toxicity markers—LDH release, changes in ATP levels, caspase-3/7 activation, and cell viability—in SH-SY5Y cells exposed to Aβ42 in the absence or presence of 2AT and KLT. We first identified an Aβ42 concentration that elicits significant toxicity in the absence of 2AT and KLT by exposing SH-SY5Y cells to varying concentrations of Aβ42 and then performing the toxicity assays. The toxicity markers establish that Aβ42 elicits significant toxicity at 6 μM (SI Appendix, Fig. S8). […]
Detailed methods are provided in the Supporting Information. […] X-ray diffraction data for KLT and KLTI were collected on a Rigaku Micromax-007HF X-ray diffractometer with a rotating copper anode, and the X-ray crystallographic phases were determined using molecular replacement and SAD phasing. […] Live-cell fluorescence microscopy was performed on SH-SY5Y cells adhered to an Ibidi µ-Slide eight Well Chamber Slide. The cells were imaged using a Keyence BZ-X810 fluorescence microscope and analyzed using the Hybrid Cell Count application in the BZ-X810 Analyzer software. […]

[2] = tested on: SH-SY5Y cells; test: Live-cell fluorescence microscopy of HL647-Aβ42 cellular interaction; type: cell-based, human; details: 1 μM HL647-Aβ42, absence of 2AT and KLT, 16 h
Description: Fig. 7. The effects of 2AT and KLT on Aβ42 toxicity and cellular interaction (A–D). (A) LDH release assay (B) CellTiter-Glo ATP assay. (C) ApoLive-Glo cell viability assay. (D) ApoLive-Glo caspase-3/7 activation assay. The cell-based assays in A–D were performed by exposing SH-SY5Y cells to 6 μM Aβ42 in the presence of a twofold dilution series of 2AT and KLT for 72 h. All data from the assays are shown as the mean of three technical replicates, with error bars representing the SD. (E–I) Live-cell fluorescence micrographs of SH-SY5Y cells after treatment with 1 μM HiLyte™ Fluor 647-Aβ42 (HL647-Aβ42) in the presence of 0 μM trimer (E) or 2 μM and 4 μM 2AT (F and G) or 2 μM and 4 μM KLT (H and I) for 16 h; (Scale bars, 20 μm.) Fluorescence quantification (FQ), as determined by (total fluorescence of HL647Aβ42)/(total number of cells) is indicated on each micrograph. Dead cells were excluded from the fluorescence quantification analysis and are marked with a white “x”. […]
For these experiments, we exposed SH-SY5Y cells to 1 μM solutions of N-terminally labeled HiLyte™ Fluor 647-Aβ42 (HL647-Aβ42) containing 0 μM, 2 μM, or 4 μM 2AT or KLT and then used live-cell fluorescence microscopy to visualize and quantify HL647-Aβ42 fluorescence on the cells. […]

Substance	concentration that elicits significant toxicity [1] [µM]	cellular localization / uptake of HL647-Aβ42 [2]
Aβ42: full-length β-amyloid peptide Aβ42	6	
HL647-Aβ42: N-terminally labeled HiLyte Fluor 647-Aβ42		accumulates as punctate features inside the cells

Source: paper PMC10235986, “Probing differences among Aβ oligomers with two triangular trimers derived from Aβ” (Proceedings of the National Academy of Sciences of the …, 2023)
